In patent publication US9695192B2, “Fused heterocyclic compounds as ion channel modulators” (GILEAD SCIENCES, INC., priority 2011, dated 2017) one finds inhibition data, which are given here for 1 molecule.

Structures are written as SMILES. Read-outs that look alike come from different tables or passages of the source.

Holding throughout (type): cell-based
The target of assay [1] is wild-type human cardiac sodium channel, hNav1.5 (Homo sapiens, UniProt Q14524). In words: Late INa screening assay (QPatch whole cell patch clamp, tefluthrin-enhanced late sodium current). The settings on record: HEK293 hNav1.5, late INa activated with 10 μM Tefluthrin. The essentials:
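Automated whole-cell patch clamp of HEK293 cells stably expressing hNav1.5 (no β subunits), 23-25 °C. Late current enhanced by 10 μM tefluthrin, 250 ms steps to −20 mV from −120 mV at 0.1 Hz, measured 225-250 ms. Compounds typically 1 μM, three additions over 7-8 min; % block normalised to 0 Na baseline.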
For orientation: Patch clamp records ionic current or voltage across a cell membrane.

A further assay has as its target T1, human Nav1.1 (Homo sapiens, UniProt P35498).
T1 construct: expressed in transfected cells; host or cells: HEK293, transient transfection (Qiagen Superfect), α1:β1:β2 at 10:1:1
In words: Nav1.1 use-dependent block, whole-cell voltage clamp, 10 Hz pulse train. The settings on record: Chantest conditions, read-out: NAV1.1 UDB-10 HZ % Inhibition.

In another assay the target is hNav1.5 Peak INa (Homo sapiens, UniProt Q14524). In words: Peak INa screening assay (tonic block and use-dependent block). On the procedure: The assay uses an HEK293 (human embryonic kidney) cell line heterologously expressing the wild-type human cardiac sodium channel, hNav1.5, purchased from Millipore (Billerica, Mass.). No beta subunits were coexpressed with the Na channel alpha subunit. Cells are maintained with standard tissue culture procedures and stable channel expression is maintained with 400 μg/mL Geneticin in the culture medium. […] Experiments are carried out at 23-25° C. […] Currents through open sodium channels are automatically recorded and stored in the Sophion Bioscience Oracle database (Sophion Bioscience, Copenhagen, Denmark). Analysis is performed using QPatch Assay and database software and data are compiled in Excel. Compound stocks are routinely made by the Gilead Sample Bank in plastic vials to 10 mM in dimethyl sulfoxide (DMSO). […] Stocks are sonicated as necessary. […] Compounds are diluted in extracellular solution to 1 μM in glass vials and then transferred to glass well plates before robotic addition to the cells. […] Good separation between the concentrations of test compound to reduce late and peak INa is beneficial to enable separation of the desired effect to reduce late INa-induced electrical and mechanical dysfunction from the undesired effect to reduce peak INa, which can lead to slowing or block of conduction of electrical excitation in the heart. It is contemplated that the compounds of Formula I avoid significant block of peak INa. […] Analysis of peak INa generally requires correction for rundown before determining the % block of peak current by the tested compound. […] Use-dependent block refers to the accumulation of block with increased frequency of channel activation. […] It is therefore expected that reduction of peak INa by compounds of this disclosure will be greater at high heart rates, such as those during tachyarrhythmias, than at normal heart rates. […] The intracellular solution used for the Peak INa assay is the same as outlined for the Late INa assay (see above). […] After establishing the whole cell recording configuration, channels were stimulated to open with low frequency stimulation (0.1 Hz) for 7 minutes so that the recording can be monitored and the extent to which the recording has stabilized can be assessed. […] Both TB and UDB were analyzed by incorporating rundown correction for the peak INa and UDB as calculated by compensating for the small use-dependent effect of the stimulation protocol on peak INa in the absence of compound.
Sequence of hNav1.5 Peak INa (Q14524 whole entry): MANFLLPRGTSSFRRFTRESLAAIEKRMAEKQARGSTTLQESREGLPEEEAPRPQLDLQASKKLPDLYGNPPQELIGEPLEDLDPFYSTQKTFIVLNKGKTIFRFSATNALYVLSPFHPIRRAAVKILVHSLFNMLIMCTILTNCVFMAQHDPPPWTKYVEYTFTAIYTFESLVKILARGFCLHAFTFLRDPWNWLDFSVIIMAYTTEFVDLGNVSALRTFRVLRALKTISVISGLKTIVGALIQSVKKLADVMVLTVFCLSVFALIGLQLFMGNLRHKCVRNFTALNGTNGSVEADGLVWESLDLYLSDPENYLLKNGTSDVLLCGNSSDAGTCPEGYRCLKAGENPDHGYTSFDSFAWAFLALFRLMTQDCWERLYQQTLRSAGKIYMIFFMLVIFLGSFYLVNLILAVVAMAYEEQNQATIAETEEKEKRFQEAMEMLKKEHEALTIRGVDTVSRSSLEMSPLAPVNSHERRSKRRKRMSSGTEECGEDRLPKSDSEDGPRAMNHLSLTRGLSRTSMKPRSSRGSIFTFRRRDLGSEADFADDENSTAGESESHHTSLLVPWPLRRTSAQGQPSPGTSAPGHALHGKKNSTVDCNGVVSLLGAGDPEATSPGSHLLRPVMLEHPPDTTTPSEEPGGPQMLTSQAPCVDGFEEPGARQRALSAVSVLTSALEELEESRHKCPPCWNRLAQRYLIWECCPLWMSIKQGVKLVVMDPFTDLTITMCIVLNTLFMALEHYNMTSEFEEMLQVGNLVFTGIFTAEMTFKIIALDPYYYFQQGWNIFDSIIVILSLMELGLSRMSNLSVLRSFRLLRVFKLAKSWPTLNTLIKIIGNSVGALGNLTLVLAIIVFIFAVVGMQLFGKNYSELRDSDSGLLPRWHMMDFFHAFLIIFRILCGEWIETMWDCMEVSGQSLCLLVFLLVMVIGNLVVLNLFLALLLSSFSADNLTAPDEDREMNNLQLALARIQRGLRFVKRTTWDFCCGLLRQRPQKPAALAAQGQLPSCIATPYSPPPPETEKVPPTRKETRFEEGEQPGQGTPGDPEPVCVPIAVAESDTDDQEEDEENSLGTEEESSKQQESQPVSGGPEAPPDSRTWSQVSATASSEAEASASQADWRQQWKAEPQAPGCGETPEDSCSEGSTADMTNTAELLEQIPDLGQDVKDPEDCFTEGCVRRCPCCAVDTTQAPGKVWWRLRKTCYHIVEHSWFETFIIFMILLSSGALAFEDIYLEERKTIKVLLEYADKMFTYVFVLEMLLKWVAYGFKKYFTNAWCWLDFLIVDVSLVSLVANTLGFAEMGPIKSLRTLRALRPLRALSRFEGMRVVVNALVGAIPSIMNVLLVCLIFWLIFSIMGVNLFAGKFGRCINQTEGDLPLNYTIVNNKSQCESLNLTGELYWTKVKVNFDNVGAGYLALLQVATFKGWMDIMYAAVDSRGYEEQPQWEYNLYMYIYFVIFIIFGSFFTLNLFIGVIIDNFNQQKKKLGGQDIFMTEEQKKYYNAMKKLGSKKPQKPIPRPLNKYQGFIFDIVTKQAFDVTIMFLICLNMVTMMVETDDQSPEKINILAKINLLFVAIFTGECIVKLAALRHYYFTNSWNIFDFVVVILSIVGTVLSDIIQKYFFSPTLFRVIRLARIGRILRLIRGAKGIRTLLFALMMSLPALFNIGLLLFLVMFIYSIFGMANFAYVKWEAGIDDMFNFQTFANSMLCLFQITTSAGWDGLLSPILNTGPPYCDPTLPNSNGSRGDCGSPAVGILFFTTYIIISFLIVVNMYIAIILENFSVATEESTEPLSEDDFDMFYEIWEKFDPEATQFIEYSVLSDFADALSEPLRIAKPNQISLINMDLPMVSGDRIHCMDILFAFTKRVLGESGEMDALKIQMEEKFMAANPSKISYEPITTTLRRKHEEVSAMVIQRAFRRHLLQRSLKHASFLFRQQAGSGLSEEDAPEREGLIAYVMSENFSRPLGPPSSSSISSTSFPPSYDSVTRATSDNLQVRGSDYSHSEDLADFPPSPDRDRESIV

Sequence of wild-type human cardiac sodium channel, hNav1.5 (Q14524 whole entry): as above

A word on the inhibition: it is the drop in the measured response relative to a control, in per cent. With `FC(F)(F)c1ccc(-c2ccc3c(c2)C(NCc2ccccc2)=NCCO3)cc1` [II-2, N-benzyl-7-(4-(trifluoromethyl)phenyl)-2,3-dihydrobenzo[f][1,4]oxazepin-5-amine], the inhibition at 1 µM was determined as 41% in assay [1]; 9% on human Nav1.1; 57% at hNav1.5 Peak INa (at 1 μM, 3 Hz stimulation, holding potential −100 mV, read-out: Peak UDB (use-dependent block of peak INa) % Inhibition); 27% on hNav1.5 Peak INa (read-out: Peak TB (tonic block of peak INa) % Inhibition).
